Assay results published in ChEMBL document CHEMBL5257093, “3-Arylidene-2-oxindoles as GSK3β inhibitors and anti-thrombotic agents” (Bioorg Med Chem Lett, 2023).

Tests used:
[1] = target: Glycogen synthase kinase-3 beta (Homo sapiens, UniProt P49841); experiment: Inhibition of recombinant human GSK3beta […] assessed as reduction in human muscle glycogen synthase type 1 fragment phosphorylation using YRRAAVPPSPSLSRHSSPHQ(pS)EDE as substrate in presence of ATP incubated for 60 mins by ADP-Glo kinase assay
Glycogen synthase kinase-3 beta, sequence (P49841 whole entry, the tested form may be a part): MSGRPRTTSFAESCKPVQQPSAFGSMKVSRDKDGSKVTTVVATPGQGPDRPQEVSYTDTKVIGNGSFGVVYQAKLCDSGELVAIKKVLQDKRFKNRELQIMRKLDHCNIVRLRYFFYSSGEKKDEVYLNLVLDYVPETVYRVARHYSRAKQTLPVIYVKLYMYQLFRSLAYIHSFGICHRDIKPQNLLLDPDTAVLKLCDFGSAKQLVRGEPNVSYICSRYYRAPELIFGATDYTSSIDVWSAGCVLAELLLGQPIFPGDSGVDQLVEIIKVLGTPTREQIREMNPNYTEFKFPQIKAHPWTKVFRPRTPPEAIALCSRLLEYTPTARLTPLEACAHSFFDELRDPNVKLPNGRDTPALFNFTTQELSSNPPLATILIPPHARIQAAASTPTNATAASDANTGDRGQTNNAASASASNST

Homo sapiens [2] = species: Homo sapiens; experiment: Antiplatelet activity in platelet rich plasma (unknown origin) assessed as inhibition of ADP-induced platelet aggregation incubated for 5 mins by aggregometer analysis; format: functional
Homo sapiens [3] = species: Homo sapiens; experiment: Antiplatelet activity in platelet rich plasma (unknown origin) assessed as inhibition of collagen-induced platelet aggregation incubated for 5 mins by aggregometer analysis; format: functional
Peritoneal macrophage = experiment: (§1) Cytotoxicity against mouse Peritoneal macrophages assessed as LDH release by LDH assay; format: toxicity, cell-based; details: peritoneal macrophage
Homo sapiens [4] = species: Homo sapiens; experiment: cells; details: Platelet, Plasma, 5 min, read-out: INH
Description: Antiplatelet activity in platelet rich plasma (unknown origin) assessed as inhibition of ADP-induced platelet aggregation at 100 uM incubated for 5 mins by aggregometer analysis

Homo sapiens [5] = species: Homo sapiens; experiment: cells; details: Platelet, Plasma, 5 min, read-out: INH; remark: listed apart in the source
Description: Antiplatelet activity in platelet rich plasma (unknown origin) assessed as inhibition of ADP-induced platelet aggregation at 10 uM incubated for 5 mins by aggregometer analysis

Homo sapiens [6] = species: Homo sapiens; experiment: cells; details: Platelet, Plasma, 5 min, read-out: INH; remark: listed apart in the source
Description: Antiplatelet activity in platelet rich plasma (unknown origin) assessed as inhibition of ADP-induced platelet aggregation at 1 uM incubated for 5 mins by aggregometer analysis

[7] = as §1; format: toxicity, cell-based, Peritoneal macrophage; details: peritoneal macrophages
Rattus norvegicus = experiment: Antithrombotic activity FeCl3-induced carotid artery thrombosis rat model assessed as prolongation of artery occlusion time pretreated dosed IG for 2 hrs followed by 50% FeCl3 application; format: functional; details: po

## O=C1Nc2ccccc2/C1=C\c1ccc(O)cc1
[1]
  IC50: > 50 µM

## O=C1Nc2ccccc2C12CC2c1ccccn1 (stereo not given)
Homo sapiens [2]; read-out: IC50
  IC50: 8.9 µM
Homo sapiens [3]; read-out: IC50
  IC50: 37 µM
Peritoneal macrophage
  CC50: > 100 µM

## Nc1ccc(CC2C(=O)Nc3ccccc32)cc1 (stereo not given)
[1]
  IC50: 50 µM

## Cc1ccc(C(=O)CC2(O)C(=O)Nc3ccc(NC(=O)c4ccccc4)cc32)cc1 (stereo not given)
[1]
  IC50: 1.72 µM

## O=C1Nc2ccc([N+](=O)[O-])cc2/C1=C\c1cccnc1
[1]
  IC50: 20 µM

## O=C1Nc2ccc(NC(=O)c3ccccc3)cc2/C1=C\c1ccc(O)cc1
Homo sapiens [2]; read-out: IC50
  IC50: 18.5 µM
Homo sapiens [3]; read-out: IC50
  IC50: 46.7 µM
Peritoneal macrophage
  CC50: > 100 µM
Homo sapiens [4]
  inhibition at 100 µM: 72.3%
Homo sapiens [5]
  inhibition at 10 µM: 37.2%
Homo sapiens [6]
  inhibition at 1 µM: 19.3%

## COCC(=O)c1[nH]ncc1/C=C1\C(=O)Nc2ccccc21
[1]
  IC50: 6.72 µM

## CC(=O)Nc1ccc2c(c1)/C(=C\c1cccnc1)C(=O)N2
[1]
  IC50: > 50 µM

## CN1C(=O)/C(=C/c2ccccn2)c2ccccc21
[1]
  IC50: > 50 µM

## COC(=O)Nc1ccc2c(c1)/C(=C\c1ccc([N+](=O)[O-])cc1)C(=O)N2
[1]
  IC50: 0.348 µM

## Cn1cc(/C=C2/C(=O)Nc3ccccc32)cn1
[1]
  IC50: 13.5 µM

## CCOC(=O)c1[nH]ncc1/C=C1\C(=O)Nc2ccc([N+](=O)[O-])cc21
[1]
  IC50: 1.77 µM

## Nc1ccc2c(c1)C(Cc1ccccn1)C(=O)N2 (stereo not given)
[1]
  IC50: > 50 µM

## COC(=O)Nc1ccc2c(c1)/C(=C\c1ccc(O)cc1)C(=O)N2
Homo sapiens [2]; read-out: IC50
  IC50: 13.5 µM
Homo sapiens [3]; read-out: IC50
  IC50: > 100 µM
Peritoneal macrophage
  CC50: > 100 µM

## O=C1Nc2ccccc2C1Cc1cccnc1 (stereo not given)
[1]
  IC50: 0.0042 µM
Homo sapiens [3]; read-out: IC50
  IC50: 3 µM
[7]
  CC50: > 100 µM
Rattus norvegicus
  ED50: 7.3 mg/kg
Homo sapiens [4]
  inhibition at 100 µM: 75.6%
Homo sapiens [5]
  inhibition at 10 µM: 55.6%
Homo sapiens [6]
  inhibition at 1 µM: 26.5%

## CC(=O)Nc1ccc2c(c1)/C(=C\c1ccc(O)cc1)C(=O)N2
[1]
  IC50: 34.4 µM

## Cc1n[nH]cc1/C=C1/C(=O)Nc2ccccc21
[1]
  IC50: 5.68 µM

## CC(=O)Oc1ccccc1C(=O)O [ASPIRIN]
Homo sapiens [2]
  IC50: 81 µM
Homo sapiens [3]
  IC50: 4.5 µM
Rattus norvegicus
  ED50: 137 mg/kg
